This note sets out measurements from US10786491B2, “Immunomodulation by IAP inhibitors” (Novartis AG, priority 2008, dated 2020).

Series [1] has as its system BALB/c splenic CD4+ T cells. In words: Survival and apoptosis of anti-CD3/anti-CD28 activated CD4+ T cells. It is filed as cell-based, BALB/c mice. The procedure: The role of IAP family members in mature NKT cell survival was assessed. […] After 24 hours viable cells were quantified by trypan blue exclusion, and the resulting cell counts are depicted in FIG. 2A. Apoptotic cells were quantified in the cultures from FIG. 2A using flow cytometry with annexin V and 7-AAD (results are depicted in FIG. 2B).

Another series has as its system BALB/c spleen cells. In words: Cytokine secretion of α-galcer stimulated spleen cells (ELISA). It is filed as cell-based, BALB/c mice. Conditions: 500 nM, 48 hours, versus control compound. The procedure: In order to determine the functional consequences of IAP inhibition in NKT cells, spleen cells from BALB/c mice were stimulated with the NKT cell specific agonist α-galactosylceramide (α-galcer). […]. After 48 hours, cytokine levels were measured in the culture supernatants by ELISA, and the results are depicted in FIG. 3A (IFNγ) and FIG. 3B (IL-2). […].

The subject of another series is splenic CD4+ T cells. The series can be described thus: IL-2 production of anti-CD3/anti-CD28 stimulated CD4+ T cells (ELISA). It is filed as cell-based, BALB/c mice.
The next series relates to CD8+ T cells. In words: Cytokine production of stimulated CD8+ T cells (ELISA). It is filed as cell-based, C57BL/6 mice. The conditions noted are these: anti-CD3 and anti-CD28; 48 hours. The procedure: Because the observed effect of IAP inhibition in T cells could still depend on alterations in NKT cell function, the consequences of IAP inhibition were assessed in NKT cell deficient CD1d knockout C57BL/6 mice. […] The effect of IAP inhibition was not limited to CD4+ T cells, as CD8+ T cells similarly produced excess IFN-γ and IL-2 after stimulation in the presence of IAP inhibitors (FIG. 5).

The test system of a further series is JNK and NF-κB pathways. The series can be described thus: Western blot of JNK phosphorylation and IκB degradation in stimulated CD4+ T cells. It is filed as cell-based. The procedure:
In order to investigate the mechanism linking IAP inhibition to enhanced, activation-dependent cytokine production, the effect of IAP inhibition on JNK phosphorylation and IκB degradation in stimulated CD4+ T cells was assessed by Western blot. […] Replicates were combined and cell lysates were analyzed by Western blot for the indicated proteins. PDI was used as a loading control.

Series [2] relates to BALB/c spleen cells cultured with irradiated C57BL/6 spleen cells. The series can be described thus: Allo-reactivity: six day mixed lymphocyte reaction and restimulation. In kind it is cell-based, BALB/c mice. Conditions: 500 nM, six days. The procedure: After six days, cultures were harvested and cytokine production and spleen cell proliferation was analyzed. […] Cytokines were measured in cell supernatants by ELISA. […] At the conclusion of the cultures described in FIG. 9A, total viable cells were counted by trypan blue exclusion and immune cell subsets were identified by flow cytometry using the markers indicated in FIG. 9B. […] Substantial B cell proliferation occurred in IAP inhibited cultures (FIG. 9B). The activation enhancing effects of IAP inhibition were readily reversed; in allo-reactive T cells, secondary stimulations with anti-CD3 in the absence of inhibitors led to equivalent responses regardless of the previous culture conditions (FIG. 10). Cells stimulated in a six day mixed lymphocyte reaction were recovered and restimulated with anti-CD3 for 48 hours. Cytokines were measured in culture supernatants by ELISA. Sample labels indicated in FIG. 10 refer to the treatment used during the primary stimulation.

In series [3] the test system is CD4+ T cells from MLIAP transgenic mice. In words: IL-2 production of ML-IAP transgenic CD4+ T cells (ELISA). It is filed as cell-based, BALB/c mice. Conditions: anti-CD3 and anti-CD28; 48 hours. From the text:
Whether overexpression of ML-IAP, an endogenous SMAC binding protein, could alter the response of T cells to activating stimuli was also examined.

A further series has as its system B16 mouse melanoma cells. In words: B16 vaccination and live tumor challenge in vivo. Conditions: single oral dose 150 mg/kg in combination with irradiated B16 vaccine; compared with LBW-242 or vaccine alone; days 7-16. On the set-up: species or system mice. The procedure:
. Irradiated B16 mouse melanoma cells (vaccine) were administered to mice on days −14 and −7 with or without a single oral dose of LBW-242 (150 mg/kg). Live B16 tumor cells were implanted into the mice on day 0 (challenge). Tumor volume was measured at 7, 10, 13 and 16 days following the live cell implant. […].

The subject of series [4] is CD4+ T cells from XIAP KO mice. In words: IL-2 production of XIAP knockout CD4+ T cells (ELISA). The conditions noted are these: anti-CD3 and anti-CD28; 48 hours; versus LCV-843.
Series [5] deals with bone marrow derived dendritic cells. The series can be described thus: IL-12 p40 production of bone marrow derived dendritic cells (ELISA). Conditions: 500 nM; cluster disruption; 24 hours.
The next series has as its system B cells. Conditions: 500 nM; anti-IgM and anti-CD40; 96 hours; compared to control cells.
Setting [6] is: 500 nM, anti-CD3 and anti-CD28, 24 hours.
The mark [7] stands for this setting: versus control compound LCV-843.

Each structure is given as a SMILES string.

Description for B cells: Because the JNK and NF-κB pathways play important roles in signaling down stream of a wide range of immune receptors, we analyzed the effect of IAP inhibitors in several additional immune populations. […] IL-6 was measured in the culture supernatant by ELISA.

Turning to `CN[C@H](C)C(=O)N[C@@H](C(=O)N1CCC2CCN(CCc3ccccc3)CC21)C1CCCCC1` (stereo in doubt) [LBW-242, N-[1-cyclohexyl-2-oxo-2-(6-phenethyl-octahydro-pyrrolo[2,3-c]pyridin-1-yl)-ethyl]-2-methylamino-propionamide], the “NKT cells in culture (anti-CD3 and α-galcer loaded CD1d tetramers)” value in series [1] (500 nM, 24 hours) was “still detectable in culture at normal frequencies”. Also, in series [1] (setting [6]), the “apoptosis (annexin V and 7-AAD)” value is “nor did it contribute to apoptosis”; the “total number of T cells (viable cells, trypan blue exclusion)” value is on record as “did not alter”. Besides, in [1] (no stimulation), the “apoptosis in the absence of stimulation” value is given as “no discernible effect”. In the series on BALB/c spleen cells, the IFN-γ secretion result is “increased secretion” and the IL-2 secretion result is “increased secretion”. The “effects from IAP inhibition in the absence of stimulation” value in the series with splenic CD4+ T cells (isotype control, no stimulation) is reported as “No effects”. The IL-2 production entry in the series with splenic CD4+ T cells (unfractionated BALB/c or C57BL/6 CD4+ T cells, anti-CD3 and anti-CD28, 48 hours) is “similar, dose-dependent effect”. In addition, in the series with CD8+ T cells, the IFN-γ production entry is given as “excess” and the IL-2 production entry is given as “excess”. Besides, the “bcl-10 levels in activated T cells” value in the series with JNK and NF-κB pathways (500 nM) is on record as “did not lead to a detectable change”. The “activation of JNK and NF-κB pathways (JNK phosphorylation, IκB degradation)” value with JNK and NF-κB pathways (500 nM, anti-CD3 and anti-CD28, versus control compound LCV-843) is reported as “activated more rapidly”. Further, the “JNK phosphorylation and IκB degradation in the absence of stimulation” value in the series on JNK and NF-κB pathways (no stimulation) is “No changes”. In addition, in [2], the B cell proliferation entry is given as “Substantial” and the “CD4 T cell proliferation” value is “significant”. For the same compound, in series [2] (setting [7]), the IFN-γ secretion entry is recorded as “significantly enhanced” and the IL-2 levels result is on record as “significantly reduced”. Besides, in series [3], the “reduced IL-2 secretion of ML-IAP transgenic T cells” value is “could be modulated”. The “tumor burden following challenge with live B16 cells” value in the series on B16 mouse melanoma cells was “reduced”. The “cytokine (IL-2) secretion of XIAP deficient T cells” value in series [4] is on record as “only a small increase”. Besides, in [5], the “IL-12 p40 production, partially activated DCs” value is on record as “increased”. Further, the IL-6 production result in the series on B cells is recorded as “increased”.
